# Laboratory results as given in patent publication US20240417400A1, “ARYL HYDROCARBON RECEPTOR (AHR) MODULATORS AND THERAPEUTIC USES THEREOF” (GALILEO BIOSYSTEMS, INC., priority 2021, published 2024).
# Tests used:
# Type in all cases: cell-based
# [1] = tested on: human keratinocytes; experiment: Inflammation of human keratinocytes induced by IL-4, IL-13, IL-22 and IFN-γ: CCL2 release and cell viability; details: IL-4, IL-13, IL-22 and IFN-γ induced, FIGS. 3A, 3B
# Text: (§1) Inflammation of human keratinocytes was induced by IL-4, IL-13, IL-22 and IFN-γ. The cells were exposed to Compound 6 or tapiranof and measured for inhibition of CCL2 release and cell viability. FIG. 3A depicts concentration response curves of inhibition of CCL2 release and cell viability for Compound 6. FIG. 3B depicts concentration response curves of inhibition of CCL2 release and cell viability for tapiranof.
# [2] = tested on: T-cells; experiment: Inflammation of T-cells induced by CD2, CD3 and CD28: IL-2 and IL-4 release; details: at the highest test concentrations, FIGS. 5A, 5B
# Text: as §1, with “T-cells were” for “human keratinocytes was”, “CD2, CD3,” for “IL-4, IL-13, IL-22”, “CD28.” for “IFN-γ.”, “IL-2 and IL-4” for “CCL2”, “5A” for “3A”, “5B” for “3B”
# [3] = tested on: gene expression biomarkers (CYP1A1, CCL17/TARC, CCL26/Eotaxin-3, Filaggrin) in freshly excised healthy human skin; experiment: Gene expression biomarker activity screen in stimulated human skin explants (RT-qPCR); details: 10 μM in media, harvested 24 hours post stimulation
# Procedure: Compound 6 and comparative compound tapinarof are evaluated for their ability to inhibit production of gene expression biomarkers using the biomarkers panel described in the below tables. Each compound is dissolved in DMSO at a dilution volume of 1000× and the resultant solutions are stored at −80° C. Concentrations tested include 1 μM, 5 μM, 10 μM, and 25 μM. Freshly excised healthy human skin is dermatomed to an approximate thickness of 750±100 μm using an Integra® dermatome according to US-SOP-3005 and US-SOP-3006. The dermatomed skin is sectioned into 7 mm biopsies and placed into 6.5 mm permeable membrane Transwell@ inserts with the Stratum corneum side apical and a section of collagen between the basal dermal tissue and the permeable membrane (n=4 per test sample). The Transwell® inserts have an average surface area of approximately 0.33 cm^2 and a volume of 0.5 mL. The basal chambers of the inserts are filled with 0.5 mL of Cornification media and the compound solutions are added to the media to a concentration of 10 μM. The inserts are stored in a humidified incubator overnight at 37° C. for approximately 16 hours. The contents of the basal chambers are vacuum aspirated and replaced with 0.5 mL of pre-warmed (ca. 37° C.) Cornification media containing the compound at a concentration of 10 μM and stimulation cocktail. Tissue explants are harvested at 24 hours post stimulation to measure production of the gene expression biomarkers by quantitative reverse transcription polymerase chain reaction (RT-qPCR). […] The test samples include untreated vehicle (control), TH1 stimulation control, TH2 stimulation control, TH17 stimulation control, tapinarof, and Compound 6.
# [4] = tested on: human keratinocytes; experiment: Inflammation of human keratinocytes induced by IL-17 and IFN-α: IL-8 release and cell viability; details: IL-17 and IFN-α induced, FIGS. 4A, 4B
# Text: as §1, with “The” for “Inflammation of human keratinocytes was induced by IL-4, IL-13, IL-22 and IFN-γ. The”, “IL-8” for “CCL2”, “4A” for “3A”, “4B” for “3B”
production of CYP1A1 (gene expression) ([3]; FIG. 1A),production of CCL17/TARC (gene expression) ([3]; FIG. 1B),production of CCL26/Eotaxin-3 (gene expression) ([3]; FIG. 1C),production of Filaggrin (gene expression) ([3]; FIG. 1D),SMILES,cell viability [1],inhibition of CCL2 release [1],inhibition of IL-2 release [2],inhibition of IL-4 release [2],inhibition of IL-8 release [4]
significant induction,reduction/inhibition,reduction/inhibition,significant induction,O=c1c2ccccc2nc2n1CCc1c-2[nH]c2ccccc12 [Compound 6],did not affect cell viability,inhibited release of CCL2,inhibited release of IL-2,inhibited,inhibited release of IL-8
,,,,"CC(C)c1c(O)cc(/C=C/c2ccccc2)cc1O [tapiranof, tapinarof, reference compound]",inhibition of cell viability at higher concentrations,inhibited release of CCL2,inhibited release of IL-2,inhibited,inhibited release of IL-8
